Data from patent US20070049564A1 (Wyeth, priority 2005, published 2007).
Read-outs that look alike come from different tables or passages of the source.

Legend:
S. pneumoniae* GC 4465 = assay: MIC, broth microdilution; conditions: Streptococcus pneumoniae
E. faecalis GC 4555 = assay: MIC, broth microdilution; conditions: Enterococcus faecalis
E. coli GC 2271 = assay: MIC, broth microdilution; conditions: Escherichia coli, GC2271, E. coli GC 2271
E. coli GC 2232 = assay: MIC, broth microdilution
E. faecalis GC 2265 = assay: MIC, broth microdilution
E. faecalis GC 2267 = assay: MIC, broth microdilution
P. aeruginosa GC 2214 = assay: MIC, broth microdilution
E. coli GC 2272 = assay: MIC, broth microdilution
E. coli GC 2203 = assay: MIC, broth microdilution
S. pneumoniae+ GC 4465 = assay: MIC, broth microdilution
E. coli GC 2234 = assay: MIC, broth microdilution; conditions: Escherichia coli, GC2234, E. coli GC 2234
Protocol: Antimicrobial susceptibility testing. The in vitro activities of the antibiotics are determined by the broth microdilution method as recommended by the National Committee for Clinical Laboratory Standards (NCCLS) (1). Mueller-Hinton II broth (MHBII)(BBL Cockeysville, Md.) is the medium employed in the testing procedures. Microtiter plates containing serial dilutions of each antimicrobial agent are inoculated with each organism to yield the appropriate density (10^5 CFU/ml) in a 100 μl final volume. The plates are incubated for 18-22 hours at 35° C. in ambient air.
Representative compounds were first incubated in mouse serum for an hour prior to the in vitro testing against a panel of selected gram-positive and gram-negative bacteria strains. All compounds were also pre-incubated in water for an hour prior to testing as control.

E. coli GC 2236 = assay: MIC, broth microdilution
S. pyogenes GC 4563 = assay: MIC, broth microdilution
E. coli GC 3226 = assay: MIC, broth microdilution
E. coli GC 4559 = assay: MIC, broth microdilution; conditions: Escherichia coli, GC4559, E. coli GC 4559
S. aureus GC 6335 = assay: MIC, broth microdilution
S. epidermidis GC 4935 = assay: MIC, broth microdilution
S. aureus GC 1131 = assay: MIC, broth microdilution
S. agalactiae GC 4564 = assay: MIC, broth microdilution
Staph. aureus Smith = assay: In vivo activity (oral, iv; ED50) against Staph. aureus Smith in mice
Protocol: Representative examples of compounds of Formula I were tested for the oral efficacy using S. aureus Smith in mice.

CCCN(CC(=O)Nc1cc(N(C)C)c2c(c1O)C(=O)C1=C(O)[C@]3(O)C(=O)C(C(N)=O)=C(O)[C@@H](N(C)C)[C@@H]3C[C@@H]1C2)C(=O)OCC [Example 15, ethyl 2-{[(5aR,6aS,7S,10aS)-9-(aminocarbonyl)-4,7-bis(dimethylamino)-1,8,10a,11-tetrahydroxy-10,12-dioxo-5,5a,6,6a,7,10,10a,12-octahydrotetracen-2-yl]amino}-2-oxoethyl(propyl)carbamate]
16 µg/mL: MIC (S. epidermidis GC 4935; Staphylococcus epidermidis, GC4935, S. epidermidis GC 4935, Mouse Serum pre-incubation) | MIC (S. epidermidis GC 4935; Staphylococcus epidermidis, GC4935, S. epidermidis GC 4935, Water pre-incubation)
32 µg/mL: MIC (E. coli GC 2203; Escherichia coli, GC2203, E. coli GC 2203, Mouse Serum pre-incubation)
> 64 µg/mL: MIC (E. coli GC 2232; Escherichia coli, GC2232, E. coli GC 2232, Mouse Serum pre-incubation) | MIC (E. coli GC 2232; Escherichia coli, GC2232, E. coli GC 2232, Water pre-incubation) | MIC (P. aeruginosa GC 2214; Pseudomonas aeruginosa, GC2214, P. aeruginosa GC 2214, Mouse Serum pre-incubation) | MIC (P. aeruginosa GC 2214; Pseudomonas aeruginosa, GC2214, P. aeruginosa GC 2214, Water pre-incubation) | MIC (E. coli GC 2272; Escherichia coli, GC2272, E. coli GC 2272, Mouse Serum pre-incubation) | MIC (E. coli GC 2272; Escherichia coli, GC2272, E. coli GC 2272, Water pre-incubation) | MIC (E. coli GC 2234; Mouse Serum pre-incubation) | MIC (E. coli GC 2234; Water pre-incubation) | MIC (E. coli GC 2236; Escherichia coli, GC2236, E. coli GC 2236, Mouse Serum pre-incubation) | MIC (E. coli GC 3226; Escherichia coli, GC3226, E. coli GC 3226, Mouse Serum pre-incubation) | MIC (E. coli GC 3226; Escherichia coli, GC3226, E. coli GC 3226, Water pre-incubation) | MIC (E. coli GC 4559; Mouse Serum pre-incubation) | MIC (E. coli GC 4559; Water pre-incubation)
2 µg/mL: MIC (S. pneumoniae* GC 4465; S. pneumoniae* GC 4465, Mouse Serum pre-incubation) | MIC (S. pneumoniae* GC 4465; S. pneumoniae* GC 4465, Water pre-incubation) | MIC (S. pyogenes GC 4563; Streptococcus pyogenes, GC4563, S. pyogenes GC 4563, Mouse Serum pre-incubation) | MIC (S. pyogenes GC 4563; Streptococcus pyogenes, GC4563, S. pyogenes GC 4563, Water pre-incubation) | MIC (S. aureus GC 1131; Staphylococcus aureus, GC1131, S. aureus GC 1131, Mouse Serum pre-incubation)
64 µg/mL: MIC (E. coli GC 2271; Mouse Serum pre-incubation) | MIC (E. coli GC 2271; Water pre-incubation) | MIC (E. coli GC 2203; Escherichia coli, GC2203, E. coli GC 2203, Water pre-incubation) | MIC (E. coli GC 2236; Escherichia coli, GC2236, E. coli GC 2236, Water pre-incubation)
8 µg/mL: MIC (E. faecalis GC 4555; GC4555, E. faecalis GC 4555, Water pre-incubation) | MIC (E. faecalis GC 2265; Enterococcus faecalis, GC2265, E. faecalis GC 2265, Mouse Serum pre-incubation) | MIC (E. faecalis GC 2265; Enterococcus faecalis, GC2265, E. faecalis GC 2265, Water pre-incubation) | MIC (E. faecalis GC 2267; Enterococcus faecalis, GC2267, E. faecalis GC 2267, Mouse Serum pre-incubation) | MIC (E. faecalis GC 2267; Enterococcus faecalis, GC2267, E. faecalis GC 2267, Water pre-incubation) | MIC (S. agalactiae GC 4564; Streptococcus agalactiae, GC4564, S. agalactiae GC 4564, Mouse Serum pre-incubation) | MIC (S. agalactiae GC 4564; Streptococcus agalactiae, GC4564, S. agalactiae GC 4564, Water pre-incubation)
4 µg/mL: MIC (E. faecalis GC 4555; GC4555, E. faecalis GC 4555, Mouse Serum pre-incubation) | MIC (S. pneumoniae+ GC 4465; Streptococcus pneumoniae, S. pneumoniae+ GC 4465, Mouse Serum pre-incubation) | MIC (S. pneumoniae+ GC 4465; Streptococcus pneumoniae, S. pneumoniae+ GC 4465, Water pre-incubation) | MIC (S. aureus GC 6335; Staphylococcus aureus, GC6335, S. aureus GC 6335, Mouse Serum pre-incubation) | MIC (S. aureus GC 6335; Staphylococcus aureus, GC6335, S. aureus GC 6335, Water pre-incubation) | MIC (S. aureus GC 1131; Staphylococcus aureus, GC1131, S. aureus GC 1131, Water pre-incubation)

CCCCN(CC(=O)Nc1cc(N(C)C)c2c(c1O)C(=O)C1=C(O)[C@]3(O)C(=O)C(C(N)=O)=C(O)[C@@H](N(C)C)C3CC1C2)C(=O)OCc1oc(=O)oc1C (stereo partly drawn) [Example 109, (5-methyl-2-oxo-1,3-dioxol-4-yl)methyl 2-{[(7S,10aS)-9-(aminocarbonyl)-4,7-bis(dimethylamino)-1,8,10a,11-tetrahydroxy-10,12-dioxo-5,5a,6,6a,7,10,10a,12-octahydrotetracen-2-yl]amino}-2-oxoethyl(butyl)carbamate]
2 UG/ML: MIC (E. coli GC 2232; pre-incubation in water) | MIC (E. coli GC 2203; pre-incubation in water) | MIC (S. pneumoniae+ GC 4465; pre-incubation in water) | MIC (E. coli GC 2236; pre-incubation in water)
4 UG/ML: MIC (E. faecalis GC 2265; pre-incubation in water) | MIC (E. faecalis GC 2267; pre-incubation in water) | MIC (S. aureus GC 1131; pre-incubation in water)
4 µg/mL: MIC (S. aureus GC 6335; Staphylococcus aureus, GC6335, pre-incubation in water) | MIC (S. epidermidis GC 4935; Staphylococcus epidermidis, GC4935, pre-incubation in water)
> 64 µg/mL: MIC (P. aeruginosa GC 2214; Pseudomonas aeruginosa, GC2214, pre-incubation in water)
0.76 mg/kg: ED50 (Staph. aureus Smith; iv, read-out: ED50 Staph Smith SIV)
0.5 µg/mL: MIC (E. faecalis GC 4555; GC4555, pre-incubation in mouse serum) | MIC (E. coli GC 2232; Escherichia coli, GC2232, pre-incubation in mouse serum) | MIC (E. coli GC 2203; Escherichia coli, GC2203, pre-incubation in mouse serum) | MIC (E. coli GC 2236; Escherichia coli, GC2236, pre-incubation in mouse serum) | MIC (E. coli GC 3226; Escherichia coli, GC3226, pre-incubation in mouse serum)
<0.06 UG/ML: MIC (S. agalactiae GC 4564; pre-incubation in mouse serum)
32 UG/ML: MIC (P. aeruginosa GC 2214; pre-incubation in mouse serum)
0.12 UG/ML: MIC (S. pyogenes GC 4563; pre-incubation in mouse serum)
1 UG/ML: MIC (E. coli GC 3226; pre-incubation in mouse serum) | MIC (S. aureus GC 6335; pre-incubation in mouse serum)
0.50 UG/ML: MIC (E. coli GC 2272; pre-incubation in mouse serum)
8 UG/ML: MIC (S. epidermidis GC 4935; pre-incubation in water)
1 µg/mL: MIC (E. faecalis GC 4555; GC4555, pre-incubation in water) | MIC (E. coli GC 2232; Escherichia coli, GC2232, pre-incubation in water) | MIC (E. faecalis GC 2265; Enterococcus faecalis, GC2265, pre-incubation in mouse serum) | MIC (E. faecalis GC 2267; Enterococcus faecalis, GC2267, pre-incubation in mouse serum) | MIC (E. coli GC 2203; Escherichia coli, GC2203, pre-incubation in water) | MIC (S. pneumoniae+ GC 4465; Streptococcus pneumoniae, pre-incubation in mouse serum) | MIC (S. pneumoniae+ GC 4465; Streptococcus pneumoniae, pre-incubation in water) | MIC (E. coli GC 2236; Escherichia coli, GC2236, pre-incubation in water) | MIC (S. aureus GC 1131; Staphylococcus aureus, GC1131, pre-incubation in mouse serum)
19.9 mg/kg: ED50 (Staph. aureus Smith; Staphylococcus aureus, in Mus musculus, po, read-out: ED50 Staph Smith SOD)
16 µg/mL: MIC (P. aeruginosa GC 2214; Pseudomonas aeruginosa, GC2214, pre-incubation in mouse serum)
2 µg/mL: MIC (E. faecalis GC 2265; Enterococcus faecalis, GC2265, pre-incubation in water) | MIC (E. faecalis GC 2267; Enterococcus faecalis, GC2267, pre-incubation in water) | MIC (S. aureus GC 6335; Staphylococcus aureus, GC6335, pre-incubation in mouse serum) | MIC (S. epidermidis GC 4935; Staphylococcus epidermidis, GC4935, pre-incubation in mouse serum) | MIC (S. aureus GC 1131; Staphylococcus aureus, GC1131, pre-incubation in water)
< 0.06 µg/mL: MIC (S. pneumoniae* GC 4465; pre-incubation in mouse serum) | MIC (S. pyogenes GC 4563; Streptococcus pyogenes, GC4563, pre-incubation in mouse serum)
0.12 µg/mL: MIC (S. agalactiae GC 4564; Streptococcus agalactiae, GC4564, pre-incubation in mouse serum)
0.25 µg/mL: MIC (E. coli GC 2272; Escherichia coli, GC2272, pre-incubation in mouse serum) | MIC (S. agalactiae GC 4564; Streptococcus agalactiae, GC4564, pre-incubation in water)
